In general, IC50 refers to the point on the concentration scale where inhibition reaches its midpoint.

The values that follow come from PMC7356761 (Molecules, 2020).

In test [1] the test system is H441 cells (wild-type EGFR). Briefly: Cell viability assay (WST-8), H441. As to conditions: WST-8, 48 h. For orientation: Formazan colour is commonly taken as a measure of viable cells.
For test [2], the system named is H1975 cells (EGFR L858R/T790M). Set-up: method as in PMID 27827863. Particulars: previous study ref 25; cited from earlier work.
The next test has as its system H3255 cells (EGFR L858R). Briefly: Cell viability assay (WST-8), H3255. Type of test: cell-based. As to conditions: Homo sapiens, NCI-H3255, WST-8, 48 h.
The target in test [3] is EGFR-TK with L858R/T790M mutation (Homo sapiens, UniProt P00533, L858R/T790M). Briefly: EGFR-TK inhibition assay (ADP-Glo), L858R/T790M. The class given is biochemical. For orientation: ADP-Glo turns the ADP formed in a reaction into a luminescent signal.
A further test concerns the target wild-type EGFR-TK (Homo sapiens, UniProt P00533). Put plainly: EGFR-TK inhibition assay (ADP-Glo), wild-type. Type of test: biochemical. As to conditions: EGFR tyrosine kinase wild-type; read-out: IC50 Value, Wild-Type (WT).

Consider `C=CC(=O)Nc1cccc(Nc2nc(Nc3ccc(N4CCN(C(C)=O)CC4)cc3OC)ncc2C(F)(F)F)c1` [CO-1686, Rociletinib, reference compound], for which the half-maximal inhibitory concentration (IC50) in test [1] was 260 ± 40 nM; in test [2] it was 137 nM; with H3255 cells (EGFR L858R), 150 ± 20 nM.

On to `C=CC(=O)Nc1cc(I)cc(Nc2nc(Nc3ccc(N4CCN(C(C)=O)CC4)cc3OC)ncc2C(F)(F)F)c1` [compound 10, N-(3-{[2-({4-[4-acetylpiperazin-1-yl]-2-methoxyphenyl}amino)-5-(trifluoromethyl)pyrimidin-4-yl]amino}-5-iodophenyl)acrylamide], for which the IC50 in test [3] (EGFR tyrosine kinase L858R/T790M) is 310 ± 150 nM; at wild-type EGFR-TK, over 10000 nM; in test [1] it was 1840 ± 440 nM; with H3255 cells (EGFR L858R) it was 500 ± 210 nM. The “SI (WT: L858R/T790M)” value in test [3] (selectivity index, wild-type IC50 to L858R/T790M IC50) is given as over 32.
